According to paper PMC6522510 (Nature Communications, 2019):
Structures can show the parent of a compound that is named as a salt. Where two headings read alike, the source gives them in different places.

Tests used:
Design in all cases: species or system AML cell lines (8); Primary HTS, single concentration about 10 uM, Cell Titer Glo viability; log10 luminescence, per cent inhibition relative to cycloheximide control
Details in all cases: 72 h, relative to cycloheximide control, log10 luminescence, inhibitor
[1] = system: ML-2
[2] = system: MOLM-13
[3] = system: U937
[4] = system: M07e
[5] = system: CMK
[6] = system: CMS
[7] = system: MV4-11
[8] = system: CHRF288-11

Structure (SMILES)	ML-2 %inh [1] [%]	MOLM-13 %inh [2] [%]	U937 %inh [3] [%]	M07e %inh [4] [%]	CMK %inh [5] [%]	CMS %inh [6] [%]	MV4-11 %inh [7] [%]	CHRF288-11 %inh [8] [%]	ML-2 %inh ([1]; ML-2 %inh, 10 µM) [%]	MOLM-13 %inh ([2]; MOLM-13 %inh, 10 µM) [%]	U937 %inh ([3]; U937 %inh, 10 µM) [%]	M07e %inh ([4]; M07e %inh, 10 µM) [%]	CMK %inh ([5]; CMK %inh, 10 µM) [%]	CMS %inh ([6]; CMS %inh, 10 µM) [%]	MV4-11 %inh ([7]; MV4-11 %inh, 10 µM) [%]	CHRF288-11 %inh ([8]; CHRF288-11 %inh, 10 µM) [%]
COCCCC/C(=N\OCCN)c1ccc(C(F)(F)F)cc1 [SJ000287487-5, FLUVOXAMINE MALEATE]	4.445	5.945	7.709	1.409	-1.719	-2.805	0.9693	7.313								
COC(=O)C1=C(C)NC(C)=C(C(=O)OC(C)C)C1c1cccc2nonc12 (centres unmarked) [SJ000287510-2, ISRADIPINE]	-1.199	6.188	3.366	0.2973	-2.127	-2.562	2.426	8.592								
Cc1cccc(C)c1NC(=O)C(C)N (centres unmarked) [SJ000287515-4, TOCAINIDE HYDROCHLORIDE]	2.731	2.63	-0.5289	1.522	-3.02	-0.9728	-0.903	-1.466								
CCOc1cc(CC(=O)N[C@@H](CC(C)C)c2ccccc2N2CCCCC2)ccc1C(=O)O [SJ000287528-2, REPAGLINIDE]									3.177	-0.4831	-2.093	3.133	-2.471	0.05176	0.6192	3.798
CCOc1cc(CC(=O)N[C@@H](CC(C)C)c2ccccc2N2CCCCC2)ccc1C(=O)O [SJ000287528-3, REPAGLINIDE]									-0.6814	1.863	0.8964	1.002	-1.863	-3.811	-2.004	0.4521
CCN[C@H]1C[C@H](C)S(=O)(=O)c2sc(S(N)(=O)=O)cc21 [SJ000287570-2, DORZOLAMIDE HYDROCHLORIDE]	-0.8167	5.665	2.321	-0.4811	0.1634	-2.24	-1.46	-4.447								
NS(=O)(=O)c1cc2c(cc1Cl)NC(C1CC3C=CC1C3)NS2(=O)=O (centres unmarked) [SJ000287770-4, CYCLOTHIAZIDE]	0.8137	4.774	3.095	-1.741	4.526	2.052	2.178	-0.8826								
CCOC(=O)c1ncn2c1CN(C)C(=O)c1cc(F)ccc1-2 [SJ000287880-4, FLUMAZENIL]	-1.521	-0.5944	0.9807	1.865	-1.15	5.754	0.7722	1.517								
O=C1Nc2ccc(I)cc2C1=Cc1cc(Br)c(O)c(Br)c1 [SJ000287883-4, GW 5074 | GW5074 | RAF1 KINASE INHIBITOR I | U7401/61/2 | GW5074]	-0.3991	3.135	2.224	1.287	3.747	1.257	1.335	7.111								
COc1cc2c(cc1O)CC[C@@H]1[C@@H]2CC[C@]2(C)[C@@H](O)CC[C@@H]12 [SJ000288002-4, 2-METHOXYESTRADIOL | 2-METHOXYESTRADIOL | PANZEM | PULMOLAR | 2-ME | 2-MEOE2 | 2ME2 | NSC-659853 | | 2-METHOXYESTRADIOL | 2-ME | 2-MEOE2 | 2ME2 | NSC-659853 | | 2-METHOXYESTRADIOL (2-MEOE2)]									66.58	91.74	95.83	111	133.7	122.6	99.75	60.77
COc1cc2c(cc1O)CC[C@@H]1[C@@H]2CC[C@]2(C)[C@@H](O)CC[C@@H]12 [SJ000288002-5, 2-METHOXYESTRADIOL | 2-METHOXYESTRADIOL | PANZEM | PULMOLAR | 2-ME | 2-MEOE2 | 2ME2 | NSC-659853 | | 2-METHOXYESTRADIOL | 2-ME | 2-MEOE2 | 2ME2 | NSC-659853 | | 2-METHOXYESTRADIOL (2-MEOE2)]									56.77	80.44	80.21	94.34	118	96.86	76.13	61.44
Cc1ccc(=O)n(-c2ccccc2)c1 [SJ000288087-4, PIRFENIDONE]	-0.2811	2.774	-2.099	-1.785	-5.144	4.387	8.387	10.42								
CCCCCCCCCCCCCCSCC(=O)O [SJ000288209-4, TETRADECYLTHIOACETIC ACID]	-0.6377	-1.133	-2.154	1.198	-1.764	-0.2083	-0.2387	-0.5942								
Clc1cnc(Oc2ccc(Oc3ncc(Cl)cc3Cl)cc2)c(Cl)c1 [SJ000288225-4, TCPOBOP]	1.606	-2.278	-1.704	1.992	-2.209	-0.7867	0.7208	4.243								
C/C(=C\c1ccc(C(=O)O)cc1)c1ccc2c(c1)C(C)(C)CCC2(C)C [SJ000288227-4, TTNPB | TTNPB (AROTINOID ACID)]	2.308	8.388	8.124	3.996	5.715	11.71	20.2	0.3991								
O=C1Nc2ccccc2/C1=C\c1c(Cl)[nH]c2ccccc12 [SJ000312180-2, CDK1 INHIBITOR]	57.06	82.19	78.83	105.1	109.3	93.89	76.6	68.22								
COCC1=C(C(=O)O)N2C(=O)[C@@H](NC(=O)/C(=N\OC)c3csc(N)n3)[C@H]2SC1 [SJ000312312-2, CEFPODOXIME, FREE ACID| R-3763| U-76253 | CEFPODOXIME, FREE ACID| R-3763| U-76253 | (6R,7R)-7-((Z)-2-(2-AMINOTHIAZOL-4-YL)-2-(METHOXYIMINO)ACETAMIDO)-3-(METHOXYMETHYL)-8-OXO-5-THIA-1-AZABICYCLO[4.2.0]OCT-2-ENE-2-CARBOXYLIC ACID]	-0.4312	-1.275	-1.004	-1.66	34.96	-1.332	-2.052	0.005285								
C[C@]12CCC(=O)C=C1[C@@H]1C[C@@H]1[C@H]1[C@@H]3[C@@H]4C[C@@H]4[C@@]4(CCC(=O)O4)[C@@]3(C)CC[C@@H]12 [SJ000312356-2, DROSPIRENONE]	-0.6244	1.327	3.696	3.09	38.69	0.9318	3.583	6.784								
COc1ccc2nc3cc(Cl)ccc3c(Nc3cc(CN4CCCC4)c(O)c(CN4CCCC4)c3)c2n1 [SJ000518979-1, PYRONARIDINE PHOSPHATE]	59.06	93.43	76.7	115	87.35	102.4	74.19	68.68								
